Results on four compounds are retold here after ChEMBL document CHEMBL1127356, “(Fluorocyclopropyl)quinolones. 2. Synthesis and Stereochemical structure-activity relationships of chiral 7-(7-amino-5-azaspiro[2.4]heptan-5-yl)-1-(2-fluorocyclopropyl)quinolone antibacterial agents” (J Med Chem, 1994).

Values after ≈ are worked out from the molar mass of the structure shown.

The first series has as its system Enterococcus faecalis. Description: Minimum inhibitory concentration in vitro against Streptococcus faecalis (ATCC 19433). The series is classed as functional. As to conditions: Enterococcus faecalis, ATCC 19433; read-out: MIC.
For the compound `N[C@H]1CN(c2c(F)cc3c(=O)c(C(=O)O)cn(C4C[C@@H]4F)c3c2Cl)CC12CC2` (single isomer, unassigned), the MIC came out at 0.78 µg/mL (≈ 1.9 µM).
On the same count and under the same terms, the figure for `N[C@@H]1CN(c2c(F)cc3c(=O)c(C(=O)O)cn(C4C[C@H]4F)c3c2Cl)CC12CC2` (single isomer, unassigned) is 0.2 µg/mL (≈ 0.488 µM).
As for `NC1CN(c2c(F)cc3c(=O)c(C(=O)O)cn([C@@H]4C[C@@H]4F)c3c2Cl)CC12CC2` (single isomer, unassigned) [SITAFLOXACIN ANHYDROUS], the MIC amounted to 0.1 µg/mL (≈ 0.244 µM).
Same read-out and setting: the figure for `N[C@H]1CN(c2c(F)cc3c(=O)c(C(=O)O)cn(C4CC4F)c3c2Cl)CC12CC2` (stereo in doubt; 40) is more than 12.5 µg/mL.

Another series deals with Serratia marcescens. Nature of the series: Minimum inhibitory concentration in vitro against […]. The series is classed as functional. As to conditions: Serratia marcescens; read-out: MIC.
In the case of `N[C@H]1CN(c2c(F)cc3c(=O)c(C(=O)O)cn(C4C[C@@H]4F)c3c2Cl)CC12CC2` (single isomer, unassigned), the MIC worked out at 0.1 µg/mL (≈ 0.244 µM).
On the same count and under the same terms, the value for `N[C@@H]1CN(c2c(F)cc3c(=O)c(C(=O)O)cn(C4C[C@H]4F)c3c2Cl)CC12CC2` (single isomer, unassigned) was 0.05 µg/mL (≈ 0.122 µM).
As for `NC1CN(c2c(F)cc3c(=O)c(C(=O)O)cn([C@@H]4C[C@@H]4F)c3c2Cl)CC12CC2` (single isomer, unassigned) [SITAFLOXACIN ANHYDROUS], the minimal inhibitory concentration (MIC) was 0.025 µg/mL (≈ 0.061 µM).
On the same count and under the same terms, the value for `N[C@H]1CN(c2c(F)cc3c(=O)c(C(=O)O)cn(C4CC4F)c3c2Cl)CC12CC2` (stereo in doubt; 40) was 0.78 µg/mL (≈ 1.9 µM).

A further series relates to Proteus vulgaris. Description: Minimum inhibitory concentration in vitro against Proteus vulgaris (08601). The class given is functional.
Settings: not given
Take `N[C@H]1CN(c2c(F)cc3c(=O)c(C(=O)O)cn(C4CC4F)c3c2Cl)CC12CC2` (stereo in doubt; 40): the minimal inhibitory concentration (MIC) was 0.39 µg/mL (≈ 0.952 µM).

Staying with this series, now noted: Proteus vulgaris; read-out: MIC.
In the case of `N[C@H]1CN(c2c(F)cc3c(=O)c(C(=O)O)cn(C4C[C@@H]4F)c3c2Cl)CC12CC2` (single isomer, unassigned), the MIC amounted to 0.025 µg/mL (≈ 0.061 µM).
With `N[C@@H]1CN(c2c(F)cc3c(=O)c(C(=O)O)cn(C4C[C@H]4F)c3c2Cl)CC12CC2` (single isomer, unassigned), the minimum inhibitory concentration (MIC) turned out to be 0.013 µg/mL (≈ 0.0317 µM).
Same read-out and setting: the value for `NC1CN(c2c(F)cc3c(=O)c(C(=O)O)cn([C@@H]4C[C@@H]4F)c3c2Cl)CC12CC2` (single isomer, unassigned) [SITAFLOXACIN ANHYDROUS] was 0.006 µg/mL (≈ 0.0146 µM).

In a further series the test system is Streptococcus pyogenes. Description: Minimum inhibitory concentration in vitro against Streptococcus pyogenes (G36). The class given is functional. As to conditions: Streptococcus pyogenes; read-out: MIC.
As for `N[C@H]1CN(c2c(F)cc3c(=O)c(C(=O)O)cn(C4C[C@@H]4F)c3c2Cl)CC12CC2` (single isomer, unassigned), the MIC was determined as 0.1 µg/mL (≈ 0.244 µM).
Same read-out and setting: the value for `N[C@@H]1CN(c2c(F)cc3c(=O)c(C(=O)O)cn(C4C[C@H]4F)c3c2Cl)CC12CC2` (single isomer, unassigned) was 0.2 µg/mL (≈ 0.488 µM); that for `NC1CN(c2c(F)cc3c(=O)c(C(=O)O)cn([C@@H]4C[C@@H]4F)c3c2Cl)CC12CC2` (single isomer, unassigned) [SITAFLOXACIN ANHYDROUS] was 0.05 µg/mL (≈ 0.122 µM).
On the same count and under the same terms, the figure for `N[C@H]1CN(c2c(F)cc3c(=O)c(C(=O)O)cn(C4CC4F)c3c2Cl)CC12CC2` (stereo in doubt; 40) is more than 12.5 µg/mL.

System in a further series: not listed separately
Nature of the series: Maximum concentration in plasma was determined by oral administration to rats at 20 mg/kg. As to conditions: rat. The series is classed as ADME, organism-based. Set-up: dose 20 mg/kg, route oral.
For `NC1CN(c2c(F)cc3c(=O)c(C(=O)O)cn([C@@H]4C[C@@H]4F)c3c2Cl)CC12CC2` (single isomer, unassigned) [SITAFLOXACIN ANHYDROUS], the Cmax was determined as 2600 ng/mL.

System in the next series: not listed separately
Description: Urinary recovery by oral administration to rats in unchanged form of compound at 20 mg/kg. The class given is ADME, organism-based. Set-up: dose 20 mg/kg, route oral. As to conditions: rat, urine, read-out: Urinary recovery.
Consider `NC1CN(c2c(F)cc3c(=O)c(C(=O)O)cn([C@@H]4C[C@@H]4F)c3c2Cl)CC12CC2` (single isomer, unassigned) [SITAFLOXACIN ANHYDROUS], for which the dose excreted stood at 22%.

The next series deals with Rattus norvegicus. Nature of the series: Urinary recovery by oral administration to rats in conjugate form of compound at 20 mg/kg. The series is classed as ADME, organism-based, Urine. Set-up: dose 20 mg/kg, route oral. As to conditions: in vivo.
The compound `NC1CN(c2c(F)cc3c(=O)c(C(=O)O)cn([C@@H]4C[C@@H]4F)c3c2Cl)CC12CC2` (single isomer, unassigned) [SITAFLOXACIN ANHYDROUS] had a Urinary recovery of 1%.

In the next series the test system is Staphylococcus aureus. Nature of the series: Minimum inhibitory concentration in vitro against […] (209P). The class given is functional.
Settings: not given
Consider `N[C@H]1CN(c2c(F)cc3c(=O)c(C(=O)O)cn(C4CC4F)c3c2Cl)CC12CC2` (stereo in doubt; 40), for which the minimum inhibitory concentration (MIC) worked out at 3.13 µg/mL (≈ 7.64 µM).

Staying with this series, now noted: Staphylococcus aureus; read-out: MIC.
For the compound `N[C@H]1CN(c2c(F)cc3c(=O)c(C(=O)O)cn(C4C[C@@H]4F)c3c2Cl)CC12CC2` (single isomer, unassigned), the MIC came out at 0.1 µg/mL (≈ 0.244 µM).
On the same count and under the same terms, the figure for `N[C@@H]1CN(c2c(F)cc3c(=O)c(C(=O)O)cn(C4C[C@H]4F)c3c2Cl)CC12CC2` (single isomer, unassigned) is 0.025 µg/mL (≈ 0.061 µM); for `NC1CN(c2c(F)cc3c(=O)c(C(=O)O)cn([C@@H]4C[C@@H]4F)c3c2Cl)CC12CC2` (single isomer, unassigned) [SITAFLOXACIN ANHYDROUS] it is 0.013 µg/mL (≈ 0.0317 µM).

The test system of the next series is Escherichia coli. Description: Minimum inhibitory concentration in vitro against Escherichia coli (NIHJ). The series is classed as functional.
Settings: not given
`N[C@H]1CN(c2c(F)cc3c(=O)c(C(=O)O)cn(C4CC4F)c3c2Cl)CC12CC2` (stereo in doubt; 40) came in with an MIC of 0.39 µg/mL (≈ 0.952 µM).

The same series, now with this note: Escherichia coli; read-out: MIC.
Take `N[C@H]1CN(c2c(F)cc3c(=O)c(C(=O)O)cn(C4C[C@@H]4F)c3c2Cl)CC12CC2` (single isomer, unassigned): the MIC was 0.025 µg/mL (≈ 0.061 µM).
In the case of `N[C@@H]1CN(c2c(F)cc3c(=O)c(C(=O)O)cn(C4C[C@H]4F)c3c2Cl)CC12CC2` (single isomer, unassigned), the MIC came to 0.013 µg/mL (≈ 0.0317 µM).
The same measure, in the same setting: the figure for `NC1CN(c2c(F)cc3c(=O)c(C(=O)O)cn([C@@H]4C[C@@H]4F)c3c2Cl)CC12CC2` (single isomer, unassigned) [SITAFLOXACIN ANHYDROUS] is less than 0.006 µg/mL.

For the next series, the system named is Klebsiella pneumoniae. Description: Minimum inhibitory concentration in vitro against Klebsiella pneumoniae (type-2). The class given is functional.
Settings: not given
Turning to `N[C@H]1CN(c2c(F)cc3c(=O)c(C(=O)O)cn(C4CC4F)c3c2Cl)CC12CC2` (stereo in doubt; 40), the MIC was 1.56 µg/mL (≈ 3.81 µM).

The series is the same for the next values; noted with them: Klebsiella pneumoniae; read-out: MIC.
Regarding `N[C@H]1CN(c2c(F)cc3c(=O)c(C(=O)O)cn(C4C[C@@H]4F)c3c2Cl)CC12CC2` (single isomer, unassigned), the MIC was 0.05 µg/mL (≈ 0.122 µM).
Still for that read-out and setting: the value for `N[C@@H]1CN(c2c(F)cc3c(=O)c(C(=O)O)cn(C4C[C@H]4F)c3c2Cl)CC12CC2` (single isomer, unassigned) was 0.025 µg/mL (≈ 0.061 µM); that for `NC1CN(c2c(F)cc3c(=O)c(C(=O)O)cn([C@@H]4C[C@@H]4F)c3c2Cl)CC12CC2` (single isomer, unassigned) [SITAFLOXACIN ANHYDROUS] was 0.025 µg/mL (≈ 0.061 µM).

The next series deals with Staphylococcus epidermidis. Description: Minimum inhibitory concentration in vitro against […] (56556). The series is classed as functional.
Settings: not given
As to `N[C@H]1CN(c2c(F)cc3c(=O)c(C(=O)O)cn(C4CC4F)c3c2Cl)CC12CC2` (stereo in doubt; 40), the MIC was determined as 3.13 µg/mL (≈ 7.64 µM).

Still in this series, the particulars now being: Staphylococcus epidermidis; read-out: MIC.
Regarding `N[C@H]1CN(c2c(F)cc3c(=O)c(C(=O)O)cn(C4C[C@@H]4F)c3c2Cl)CC12CC2` (single isomer, unassigned), the MIC worked out at 0.1 µg/mL (≈ 0.244 µM).
Take `N[C@@H]1CN(c2c(F)cc3c(=O)c(C(=O)O)cn(C4C[C@H]4F)c3c2Cl)CC12CC2` (single isomer, unassigned): the MIC is 0.05 µg/mL (≈ 0.122 µM).
In the case of `NC1CN(c2c(F)cc3c(=O)c(C(=O)O)cn([C@@H]4C[C@@H]4F)c3c2Cl)CC12CC2` (single isomer, unassigned) [SITAFLOXACIN ANHYDROUS], the MIC amounted to 0.025 µg/mL (≈ 0.061 µM).

Another series concerns Pseudomonas aeruginosa. Description: Minimum inhibitory concentration in vitro against Pseudomonas aeruginosa (32104). The class given is functional.
Settings: not given
In turn, `N[C@H]1CN(c2c(F)cc3c(=O)c(C(=O)O)cn(C4CC4F)c3c2Cl)CC12CC2` (stereo in doubt; 40) displayed an MIC of 6.25 µg/mL (≈ 15.3 µM).

The same series, now with this note: Pseudomonas aeruginosa; read-out: MIC.
As to `N[C@H]1CN(c2c(F)cc3c(=O)c(C(=O)O)cn(C4C[C@@H]4F)c3c2Cl)CC12CC2` (single isomer, unassigned), the minimum inhibitory concentration (MIC) is 0.39 µg/mL (≈ 0.952 µM).
Regarding `N[C@@H]1CN(c2c(F)cc3c(=O)c(C(=O)O)cn(C4C[C@H]4F)c3c2Cl)CC12CC2` (single isomer, unassigned), the MIC turned out to be 0.2 µg/mL (≈ 0.488 µM).
The same measure, in the same setting: the value for `NC1CN(c2c(F)cc3c(=O)c(C(=O)O)cn([C@@H]4C[C@@H]4F)c3c2Cl)CC12CC2` (single isomer, unassigned) [SITAFLOXACIN ANHYDROUS] was 0.05 µg/mL (≈ 0.122 µM).

For the next series, the system named is Enterobacter cloacae. Description: Minimum inhibitory concentration in vitro against Enterobacter cloacae (03400). The series is classed as functional.
Settings: not given
In turn, `N[C@H]1CN(c2c(F)cc3c(=O)c(C(=O)O)cn(C4CC4F)c3c2Cl)CC12CC2` (stereo in doubt; 40) returned a minimal inhibitory concentration (MIC) of 0.78 µg/mL (≈ 1.9 µM).

Staying with this series, now noted: Enterobacter cloacae; read-out: MIC.
Regarding `N[C@H]1CN(c2c(F)cc3c(=O)c(C(=O)O)cn(C4C[C@@H]4F)c3c2Cl)CC12CC2` (single isomer, unassigned), the MIC turned out to be 0.025 µg/mL (≈ 0.061 µM).
Same read-out and setting: the figure for `N[C@@H]1CN(c2c(F)cc3c(=O)c(C(=O)O)cn(C4C[C@H]4F)c3c2Cl)CC12CC2` (single isomer, unassigned) is 0.013 µg/mL (≈ 0.0317 µM); for `NC1CN(c2c(F)cc3c(=O)c(C(=O)O)cn([C@@H]4C[C@@H]4F)c3c2Cl)CC12CC2` (single isomer, unassigned) [SITAFLOXACIN ANHYDROUS] it is 0.006 µg/mL (≈ 0.0146 µM).
